Where two headings read alike, the source gives them in different places.
How the values were obtained:
CC49-TCO-Dox [1] = experiment: In vitro Dox release from CC49-TCO-Dox in 50% mouse serum; format: biochemical
Procedure: (§1) Doxorubicin (Dox) release from the TCO-linked ADC CC49-TCO-Dox with various TZ activators in PBS and 50% mouse serum at 37° C. was evaluated in vitro as described in Rossin et al. Bioconjug. […] The results of these experiments are depicted in Tables 3 (PBS) and 4 (mouse serum). The release reactions were performed in triplicate unless otherwise stated in the result table.

CC49-TCO-Dox [2] = experiment: In vitro Dox release from CC49-TCO-Dox in PBS; format: biochemical
Procedure: as §1

AVP0458-TCO-MMAE = experiment: MMAE release from diabody ADC with D8-MMAE internal standard (LC-SIM-MS); format: biochemical; settings: 10 equiv of tetrazine, PBS/plasma (1/1), 37° C., after 24 h, n=3
Procedure: In an alternative method MMAE release from diabody ADC (AVP0458-TCO-MMAE) was determined by using a deuterated internal standard D8-MMAE. ADC (1.1×10^−10 moles bound MMAE) and D8-MMAE (1.1×10^−10 moles) and 10 equiv of tetrazine were incubated in 100 uL PBS/plasma (1/1) at 37° C.

[3] = tested on: LS174T human colon carcinoma cells; experiment: Cell proliferation (MTT) assay of ADCs with range of tetrazines; format: cell-based; settings: 3-day incubation; for cell growth inhibition, combination of ADC and activator: CC49-TCO-Dox 0.1 μM or AVP0458-TCO-MMAE 1 nM plus activator 1 μM; for cell growth inhibition, activators alone: activator 1 μM alone
Procedure: Cell proliferation was assessed after a 3-day incubation by means of an MTT assay and was expressed as the % of that obtained without treatment.

[4] = In vitro tetrazine stability (decrease of UV absorbance at 520 nm); format: physicochemical; settings: read-out: In vitro tetrazine stability (h), t1/2 (converted)
Procedure: The stability of tetrazines was evaluated by dissolving them in 10% MeCN/PBS at 37° C. and following the decrease of the tetrazine UV absorbance at 520 nm in time (Table 4).

[5] = Second-order reaction rate constant with TCO derivative by UV spectroscopy; format: physicochemical; settings: 25% MeCN/PBS at 20° C.
Procedure: The second-order reaction rate constants were calculated from the rate at which the absorption at 520 nm (specific for the TZ moiety) decreased (Table 4).

3,6-dimethyl-1,2,4,5-tetrazine functional dextran [Compound 2.2]
In vitro Dox release (%) from CC49-Dox at 37° C. in 50% mouse serum: 1 h (CC49-TCO-Dox [1]): 34.0 ± 1.2% | In vitro Dox release (%) from CC49-Dox at 37° C. in 50% mouse serum: 2 h (CC49-TCO-Dox [1]): 43.4 ± 1.5% | In vitro Dox release (%) from CC49-Dox at 37° C. in 50% mouse serum: 3 h (CC49-TCO-Dox [1]): 48.6 ± 1.2% | In vitro Dox release (%) from CC49-Dox at 37° C. in PBS: 1 h (CC49-TCO-Dox [2]): 44.9% | In vitro Dox release (%) from CC49-Dox at 37° C. in PBS: 2 h (CC49-TCO-Dox [2]): 51.3% | In vitro Dox release (%) from CC49-Dox at 37° C. in PBS: 3 h (CC49-TCO-Dox [2]): 54.6% | In vitro Dox release (%) from CC49-Dox at 37° C. in PBS: 24 h (CC49-TCO-Dox [2]): 62.3%

3-(pyridin-2-yl)-6-methyl-1,2,4,5-tetrazine functional dextran [Compound 3.2]
In vitro Dox release (%) from CC49-Dox at 37° C. in 50% mouse serum: 1 h (CC49-TCO-Dox [1]): 36.1 ± 0.1% | In vitro Dox release (%) from CC49-Dox at 37° C. in 50% mouse serum: 2 h (CC49-TCO-Dox [1]): 39.8 ± 0.2% | In vitro Dox release (%) from CC49-Dox at 37° C. in 50% mouse serum: 3 h (CC49-TCO-Dox [1]): 42.0 ± 0.4% | In vitro Dox release (%) from CC49-Dox at 37° C. in PBS: 1 h (CC49-TCO-Dox [2]): 44.3% | In vitro Dox release (%) from CC49-Dox at 37° C. in PBS: 2 h (CC49-TCO-Dox [2]): 44.7% | In vitro Dox release (%) from CC49-Dox at 37° C. in PBS: 3 h (CC49-TCO-Dox [2]): 47.5% | In vitro Dox release (%) from CC49-Dox at 37° C. in PBS: 24 h (CC49-TCO-Dox [2]): 45.0%

Cc1nnc(-c2ccccn2)nn1 [Compound 3.1, 3-(2-pyridyl)-6-methyl-1,2,4,5-tetrazine]
In vitro Dox release (%) from CC49-Dox at 37° C. in 50% mouse serum: 1 h (CC49-TCO-Dox [1]): 53.8 ± 1.7% | In vitro Dox release (%) from CC49-Dox at 37° C. in 50% mouse serum: 2 h (CC49-TCO-Dox [1]): 57.1 ± 1.8% | In vitro Dox release (%) from CC49-Dox at 37° C. in 50% mouse serum: 3 h (CC49-TCO-Dox [1]): 59.6 ± 2.0% | In vitro Dox release (%) from CC49-Dox at 37° C. in PBS: 1 h (CC49-TCO-Dox [2]): 55.1% | In vitro Dox release (%) from CC49-Dox at 37° C. in PBS: 2 h (CC49-TCO-Dox [2]): 55.9% | In vitro Dox release (%) from CC49-Dox at 37° C. in PBS: 3 h (CC49-TCO-Dox [2]): 58.9% | In vitro Dox release (%) from CC49-Dox at 37° C. in PBS: 24 h (CC49-TCO-Dox [2]): 59.6%

Cc1nnc(-c2ccc(NC(=O)CCCC(=O)NCCOCCOCCOCCOCCOCCOCCOCCOCCOCCOCCOCCNC(=O)CN3CCN(CC(=O)O)CCN(CC(=O)O)CCN(CC(=O)O)CC3)cn2)nn1 [Compound 3.4, 2,2′,2″-(10-(44-((6-(6-methyl-1,2,4,5-tetrazin-3-yl)pyridin-3-yl)amino)-2,40,44-trioxo-6,9,12,15,18,21,24,27,30,33,36-undecaoxa-3,39-diazatetratetracontyl)-1,4,7,10-tetraazacyclododecane-1,4,7-triyl)triacetic acid]
induced MMAE release (%) from AVP0458-TCO-MMAE (AVP0458-TCO-MMAE): 47 ± 0.3% | cell growth inhibition, combination of ADC and activator [3]: growth inhibition approached that achieved with the corresponding amount of free drug | cell growth inhibition, activators alone [3]: minimal cell growth inhibition

Cc1nnc(-c2nccc(CNC(=O)OC(C)(C)C)n2)nn1 [Compound 4.17]
induced MMAE release (%) from AVP0458-TCO-MMAE (AVP0458-TCO-MMAE): 70 ± 0.1% | half-life ([4]; 10% MeCN/PBS): 12 h | reactivity (k2) [5]: 412 M⁻¹ s⁻¹

Cc1nnc(-c2cnccn2)nn1 [Compound 4.18]
induced MMAE release (%) from AVP0458-TCO-MMAE (AVP0458-TCO-MMAE): 55 ± 0.8% | half-life ([4]; 10% MeCN/PBS): 16 h | reactivity (k2) [5]: 150 M⁻¹ s⁻¹

Cc1nnc(-c2ccncn2)nn1 [Compound 4.19]
induced MMAE release (%) from AVP0458-TCO-MMAE (AVP0458-TCO-MMAE): 60 ± 0.1% | half-life ([4]; buffer): 1 h | reactivity (k2) [5]: 290 M⁻¹ s⁻¹

Cc1nnc(-c2nccnc2C)nn1 [Compound 4.20]
induced MMAE release (%) from AVP0458-TCO-MMAE (AVP0458-TCO-MMAE): 59 ± 0.3% | half-life ([4]; 10% MeCN/PBS): 15 h | reactivity (k2) [5]: 28 M⁻¹ s⁻¹

Cc1nnc(-c2nccc(C(=O)O)n2)nn1 [Compound 4.23]
induced MMAE release (%) from AVP0458-TCO-MMAE (AVP0458-TCO-MMAE): 69 ± 0.5% | half-life ([4]; 10% MeCN/PBS): 6 h | reactivity (k2) [5]: 246 M⁻¹ s⁻¹

COCCOCCOCCOCCOCCOCCOCCOCCOCCOCCOCC(=O)NCCCc1nnc(-c2ncccn2)nn1 [Compound 4.24]
half-life ([4]; 10% MeCN/PBS): 13 h

Cc1nnc(-c2nccc(CNC(=O)CCCC(=O)O)n2)nn1 [Compound 4.27]
induced MMAE release (%) from AVP0458-TCO-MMAE (AVP0458-TCO-MMAE): 66 ± 0.5%

CN(CCc1nnc(-c2ncccn2)nn1)C(=O)N1CCN(C(=O)c2ccc(F)cc2)CC1 [Compound 4.33, 4-(4-fluorobenzoyl)-N-methyl-N-(2-(6-(pyrimidin-2-yl)-1,2,4,5-tetrazin-3-yl)ethyl)piperazine-1-carboxamide]
induced MMAE release (%) from AVP0458-TCO-MMAE (AVP0458-TCO-MMAE): 53 ± 0.6% | cell growth inhibition, combination of ADC and activator [3]: growth inhibition approached that achieved with the corresponding amount of free drug | cell growth inhibition, activators alone [3]: minimal cell growth inhibition

CN(CCc1nnc(-c2ncccn2)nn1)C(=O)c1ccc(F)cc1 [Compound 4.35, 4-fluoro-N-methyl-N-(2-(6-(pyrimidin-2-yl)-1,2,4,5-tetrazin-3-yl)ethyl)benzamide]
induced MMAE release (%) from AVP0458-TCO-MMAE (AVP0458-TCO-MMAE): 67 ± 0.1% | cell growth inhibition, combination of ADC and activator [3]: growth inhibition approached that achieved with the corresponding amount of free drug | cell growth inhibition, activators alone [3]: minimal cell growth inhibition

O=C(O)CN1CCN(CC(=O)O)CCN(CC(=O)NCCOCCOCCOCCOCCOCCOCCOCCOCCOCCOCCOCCNC(=O)CCCC(=O)Nc2ccc(-c3nnc(-c4ccccn4)nn3)nc2)CCN(CC(=O)O)CC1 [Compound 5.1, 2,2′,2″-(10-(2,40,44-Trioxo-44-((6-(6-(pyridine-2-yl)-1,2,4,5-tetrazin-3-yl)pyridine-3-yl)amino)-6,9,12,15,18,21,24,27,30,33,36-undecaoxa-3,39-diazatetratetracontyl)-1,4,7,10-tetraazacyclododecane-1,4,7-triyl)triacetic acid]
In vitro Dox release (%) from CC49-Dox at 37° C. in 50% mouse serum: 1 h (CC49-TCO-Dox [1]): 13.7 ± 0.7% | In vitro Dox release (%) from CC49-Dox at 37° C. in 50% mouse serum: 2 h (CC49-TCO-Dox [1]): 15.2 ± 1.4% | In vitro Dox release (%) from CC49-Dox at 37° C. in 50% mouse serum: 3 h (CC49-TCO-Dox [1]): 14.8 ± 0.8% | In vitro Dox release (%) from CC49-Dox at 37° C. in PBS: 1 h (CC49-TCO-Dox [2]): 14.2% | In vitro Dox release (%) from CC49-Dox at 37° C. in PBS: 2 h (CC49-TCO-Dox [2]): 20.4% | In vitro Dox release (%) from CC49-Dox at 37° C. in PBS: 3 h (CC49-TCO-Dox [2]): 24.3% | In vitro Dox release (%) from CC49-Dox at 37° C. in PBS: 24 h (CC49-TCO-Dox [2]): 48.1% | In vitro Dox release (%) from CC49-Dox at 37° C. in PBS: 48 h (CC49-TCO-Dox [2]): 54.9%

O=C(O)CN1CCN(CC(=O)O)CCN(CC(=O)NCCOCCNC(=O)CCCC(=O)NCCCc2nnc(CCCNC(=O)CCCC(=O)NCCOCCNC(=O)CN3CCN(CC(=O)O)CCN(CC(=O)O)CCN(CC(=O)O)CC3)nn2)CCN(CC(=O)O)CC1 [Compound 5.3, Tz-bis-DOTA]
In vitro Dox release (%) from CC49-Dox at 37° C. in 50% mouse serum: 1 h (CC49-TCO-Dox [1]): 43.6 ± 3.5% | In vitro Dox release (%) from CC49-Dox at 37° C. in 50% mouse serum: 2 h (CC49-TCO-Dox [1]): 54.9 ± 6.0% | In vitro Dox release (%) from CC49-Dox at 37° C. in 50% mouse serum: 3 h (CC49-TCO-Dox [1]): 64.4 ± 3.3% | In vitro Dox release (%) from CC49-Dox at 37° C. in 50% mouse serum: 6 h (CC49-TCO-Dox [1]; 6 h): 67.5 ± 8.3% | In vitro Dox release (%) from CC49-Dox at 37° C. in PBS: 1 h (CC49-TCO-Dox [2]): 50.5% | In vitro Dox release (%) from CC49-Dox at 37° C. in PBS: 2 h (CC49-TCO-Dox [2]): 59.3% | In vitro Dox release (%) from CC49-Dox at 37° C. in PBS: 3 h (CC49-TCO-Dox [2]): 62.5% | In vitro Dox release (%) from CC49-Dox at 37° C. in PBS: 24 h (CC49-TCO-Dox [2]): 80.3% | In vitro Dox release (%) from CC49-Dox at 37° C. in PBS: 48 h (CC49-TCO-Dox [2]): 91.2%

NCCc1nnc(-c2nccc(CNC(=O)CCCC(=O)O)n2)nn1 [Compound 5.5]
induced MMAE release (%) from AVP0458-TCO-MMAE (AVP0458-TCO-MMAE): 81 ± 0.4%

NCCc1nnc(-c2nccc(CNC(=O)CCCC(=O)NC(CO)(CO)CO)n2)nn1 [Compound 5.8]
induced MMAE release (%) from AVP0458-TCO-MMAE (AVP0458-TCO-MMAE): 80 ± 0.5%

Reference: patent publication US20210299286A1, “TETRAZINES FOR HIGH CLICK CONJUGATION YIELD IN VIVO AND HIGH CLICK RELEASE YIELD” (Tagworks Pharmaceuticals B.V., priority 2018, published 2021)
